Data published in PubChem BioAssay AID2060621 (Molecular Pharmacology Branch, DTP, NCI, 2025).

Tested on: 324938-238-R-J1-PDC complex spheroids viability
Experiment: Anticancer human tumor 324938-238-R-J1-PDC patient-derived bladder carcinoma cell line growth inhibition [CLK]
Details: for IC50: curve of first compound; for viability, T/C: stronger effect = lower value; active = viability on the fitted dose curve at most 10% of control; inactive = the rest
Method in brief: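 Patient-derived tumor cells grown as complex spheroids with HUVEC endothelial cells and mesenchymal stem cells, treated with drug combinations. Concentrations descend in half-log steps from near clinical Cmax, or from 10 microM if Cmax unknown.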

[1] = second compound 0.0316 µM, first compound 0.0316 µM
[2] = second compound 0.0316 µM, first compound 0.1 µM
[3] = second compound 0.0316 µM, first compound 0.316 µM
[4] = second compound 0.0316 µM, first compound 1 µM
[5] = second compound 0.0316 µM, first compound 3.16 µM
[6] = second compound 0.0316 µM, first compound 10 µM
[7] = second compound 0.1 µM, first compound 0.0316 µM
[8] = second compound 0.1 µM, first compound 0.1 µM
[9] = second compound 0.1 µM, first compound 0.316 µM
[10] = second compound 0.1 µM, first compound 1 µM
[11] = second compound 0.1 µM, first compound 3.16 µM
[12] = second compound 0.1 µM, first compound 10 µM
[13] = second compound 0.316 µM, first compound 0.0316 µM
[14] = second compound 0.316 µM, first compound 0.1 µM
[15] = second compound 0.316 µM, first compound 0.316 µM
[16] = second compound 0.316 µM, first compound 1 µM
[17] = second compound 0.316 µM, first compound 3.16 µM
[18] = second compound 0.316 µM, first compound 10 µM
[19] = second compound 1 µM, first compound 0.0316 µM
[20] = second compound 1 µM, first compound 0.1 µM
[21] = second compound 1 µM, first compound 0.316 µM
[22] = second compound 1 µM, first compound 1 µM
[23] = second compound 1 µM, first compound 3.16 µM
[24] = second compound 1 µM, first compound 10 µM
[25] = second compound 3.16 µM, first compound 0.0316 µM
[26] = second compound 3.16 µM, first compound 0.1 µM
[27] = second compound 3.16 µM, first compound 0.316 µM
[28] = second compound 3.16 µM, first compound 1 µM
[29] = second compound 3.16 µM, first compound 3.16 µM
[30] = second compound 3.16 µM, first compound 10 µM
[31] = second compound 10 µM, first compound 0.0316 µM
[32] = second compound 10 µM, first compound 0.1 µM
[33] = second compound 10 µM, first compound 0.316 µM
[34] = second compound 10 µM, first compound 1 µM
[35] = second compound 10 µM, first compound 3.16 µM
[36] = second compound 10 µM, first compound 10 µM
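Also: viability read after seven days of drug exposure.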
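For viability, T/C in this document: 100% = DMSO vehicle control wells.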

CC(=O)O[C@H]1C(=O)[C@@]2(C)[C@H]([C@H](OC(=O)c3ccccc3)[C@]3(O)C[C@H](OC(=O)[C@H](O)[C@@H](NC(=O)c4ccccc4)c4ccccc4)C(C)=C1C3(C)C)[C@]1(OC(C)=O)CO[C@@H]1C[C@@H]2O + CN1CCN(c2cc(C(=O)Nc3cc4cc(-c5cnn(C)c5)ccc4cn3)ccn2)CC1
< 31.6 nM: IC50 (second compound 0.0316 µM) | IC50 (second compound 0.1 µM) | IC50 (second compound 0.316 µM) | IC50 (second compound 1 µM) | IC50 (second compound 3.16 µM) | IC50 (second compound 10 µM)
active: viability, T/C [19] 0.92% | viability, T/C [20] 0.96% | viability, T/C [21] 0.69% | viability, T/C [22] 1.04% | viability, T/C [23] 0.73% | viability, T/C [24] 0.69% | viability, T/C [25] 0.17% | viability, T/C [26] 0.22% | viability, T/C [27] 0.22% | viability, T/C [28] 0.13% | viability, T/C [29] 0.21% | viability, T/C [30] 0.18% | viability, T/C [31] 0.13% | viability, T/C [32] 0.16% | viability, T/C [33] 0.51% | viability, T/C [34] 0.16% | viability, T/C [35] 0.28% | viability, T/C [36] 0.28%
inactive: viability, T/C [1] 14.2% | viability, T/C [2] 13.8% | viability, T/C [3] 14.7% | viability, T/C [4] 12.9% | viability, T/C [5] 14.6% | viability, T/C [6] 15.7% | viability, T/C [7] 13.7% | viability, T/C [8] 14% | viability, T/C [9] 13.6% | viability, T/C [10] 13.8% | viability, T/C [11] 14.5% | viability, T/C [12] 16.9% | viability, T/C [13] 16.9% | viability, T/C [14] 15.6% | viability, T/C [15] 15.2% | viability, T/C [16] 16.9% | viability, T/C [17] 15% | viability, T/C [18] 18%

CCc1c2c(nc3ccc(O)cc13)-c1cc3c(c(=O)n1C2)COC(=O)[C@]3(O)CC + CN1CCN(c2cc(C(=O)Nc3cc4cc(-c5cnn(C)c5)ccc4cn3)ccn2)CC1
< 3.16 nM: IC50 (second compound 0.0316 µM) | IC50 (second compound 0.1 µM) | IC50 (second compound 0.316 µM) | IC50 (second compound 1 µM) | IC50 (second compound 3.16 µM) | IC50 (second compound 10 µM)
active: viability, T/C [2] 9.42% | viability, T/C [3] 8.03% | viability, T/C [4] 1.47% | viability, T/C [7] 8.87% | viability, T/C [8] 8.12% | viability, T/C [9] 6.95% | viability, T/C [10] 1.21% | viability, T/C (second compound 0.316 µM, first compound 0.01 µM) 7.5% | viability, T/C [13] 4.44% | viability, T/C [14] 3.89% | viability, T/C [15] 0.83% | viability, T/C [16] 0.18% | viability, T/C (second compound 1 µM, first compound 0.00316 µM) 0.42% | viability, T/C (second compound 1 µM, first compound 0.01 µM) 0.28% | viability, T/C [19] 0.24% | viability, T/C [20] 0.06% | viability, T/C [21] 0.09% | viability, T/C [22] 0.38% | viability, T/C (second compound 3.16 µM, first compound 0.00316 µM) 0.16% | viability, T/C (second compound 3.16 µM, first compound 0.01 µM) 0.17% | viability, T/C [25] 0.19% | viability, T/C [26] 0.1% | viability, T/C [27] 0.16% | viability, T/C [28] 0.14% | viability, T/C (second compound 10 µM, first compound 0.00316 µM) 0.1% | viability, T/C (second compound 10 µM, first compound 0.01 µM) 0.11% | viability, T/C [31] 0.17% | viability, T/C [32] 0.11% | viability, T/C [33] 0.16% | viability, T/C [34] 0.16%
inactive: viability, T/C (second compound 0.0316 µM, first compound 0.00316 µM) 14.9% | viability, T/C (second compound 0.0316 µM, first compound 0.01 µM) 10.1% | viability, T/C [1] 11.5% | viability, T/C (second compound 0.1 µM, first compound 0.00316 µM) 12.7% | viability, T/C (second compound 0.1 µM, first compound 0.01 µM) 10.3% | viability, T/C (second compound 0.316 µM, first compound 0.00316 µM) 10.5%

O=c1[nH]cc(F)c(=O)[nH]1 + CN1CCN(c2cc(C(=O)Nc3cc4cc(-c5cnn(C)c5)ccc4cn3)ccn2)CC1
inactive: viability, T/C [1] 74% | viability, T/C [2] 72.8% | viability, T/C [3] 42.1% | viability, T/C [4] 20.4% | viability, T/C [5] 23.9% | viability, T/C [6] 19.1% | viability, T/C [7] 61.5% | viability, T/C [8] 48.2% | viability, T/C [9] 36.4% | viability, T/C [10] 22.6% | viability, T/C [11] 18.2% | viability, T/C [12] 18.1% | viability, T/C [13] 23.1% | viability, T/C [14] 23.9% | viability, T/C [15] 20.6% | viability, T/C [16] 18.9% | viability, T/C [17] 16.8% | viability, T/C [18] 17%
< 31.6 nM: IC50 (second compound 0.316 µM) | IC50 (second compound 1 µM) | IC50 (second compound 3.16 µM) | IC50 (second compound 10 µM)
active: viability, T/C [19] 0.71% | viability, T/C [20] 1.08% | viability, T/C [21] 0.67% | viability, T/C [22] 0.81% | viability, T/C [23] 0.77% | viability, T/C [24] 1.58% | viability, T/C [25] 0.09% | viability, T/C [26] 0.15% | viability, T/C [27] 0.1% | viability, T/C [28] 0.11% | viability, T/C [29] 0.08% | viability, T/C [30] 0.19% | viability, T/C [31] 0.07% | viability, T/C [32] 0.12% | viability, T/C [33] 0.13% | viability, T/C [34] 0.09% | viability, T/C [35] 0.1% | viability, T/C [36] 0.19%
236 nM: IC50 (second compound 0.0316 µM)
94.2 nM: IC50 (second compound 0.1 µM)
